“Also recorded” adds a separate entry of the source.
What was measured:
NR1H2 = biological target: T1, NR1H2 (Homo sapiens, UniProt P55055); assay: AP assay: MPCs infected with Ad-NR1H2 and treated with ligand; assay type: cell-based; settings: ligand at different concentrations
T1 construct: amplification of the complete open reading frame from ATG start codon to the stop codon of drugable genes; expressed in transfected cells; host or cells: primary human mesenchymal progenitor cells (MPCs), transduced with Ad5-NR1H2 and Ad-hCAR
T1 sequence (P55055 1-460): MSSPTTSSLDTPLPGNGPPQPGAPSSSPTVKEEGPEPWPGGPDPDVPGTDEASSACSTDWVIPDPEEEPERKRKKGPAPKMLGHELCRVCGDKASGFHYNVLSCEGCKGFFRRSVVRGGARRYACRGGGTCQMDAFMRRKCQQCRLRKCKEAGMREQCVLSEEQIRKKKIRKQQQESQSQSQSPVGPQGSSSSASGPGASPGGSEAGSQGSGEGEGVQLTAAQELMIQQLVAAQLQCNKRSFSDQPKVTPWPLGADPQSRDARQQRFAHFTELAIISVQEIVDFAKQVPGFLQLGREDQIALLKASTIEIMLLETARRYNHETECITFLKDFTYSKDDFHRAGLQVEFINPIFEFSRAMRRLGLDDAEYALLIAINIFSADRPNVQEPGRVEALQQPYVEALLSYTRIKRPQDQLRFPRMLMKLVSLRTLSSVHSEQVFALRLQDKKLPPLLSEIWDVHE
Description: MPCs are seeded on day0 at 1000 cells per well of a 384 well plate and co-infected the next day using AdC51-hCAR (MOI 250) and different MOIs of Ad5-NR1H3 (MOI 2000, 666). On day 1, 5 concentrations (1E-9M, 1E-8M, 1E-7M, 1E-6M, 1E-5M) of the compound T0901317 (Cayman Chemical, Michigan, USA, Cat. No. 71810) with fixed vehicle concentration (DMSO at final concentration of 0.1%) are added to the wells. After 6 days, medium is removed and replaced with fresh medium containing the same concentrations of the compound T0901317. Readouts of AP activity are performed at several time points after the start of the experiment, typically after 7, 10 and 13 days. Up-regulation of alkaline phosphatase activity is read as follows: medium is removed from the monolayers, 15 μl MUP is added to each well, the plates are incubated for 15 min at 37° C. and then read for AP activity using a fluorescence plate reader (Fluostar, BMG).
(§1) MPCs are seeded on day 0 at 1000 cells per well of a 384 well plate and co-infected the next day using AdC51-hCAR (MOI 250) and different MOIs of Ad5-NR1H2 (MOI 2000, 666). […] Readouts of AP activity are performed at several time points after the start of the experiment, typically after 7, 10 and 13 days. Up-regulation of alkaline phosphatase activity is read as follows: medium is removed from the monolayers, 15 μL MUP is added to each well, the plates are incubated for 15 min at 37° C. and then read for AP activity using a fluorescence plate reader (Fluostar, BMG).
as §1, with “day0” for “day 0”, “AdC5′-hCAR” for “AdC51-hCAR”, “Ad5-NR1H2 or Ad-NR1H3” for “Ad5-NR1H2”, “6000).” for “666).”, “μl” for “μL”

primary human MPCs = assay: Mineralization assay (Alizarin RedS / Von Kossa); assay type: cell-based; settings: MPCs with NR1H3 and T0901317
Description: On day one, primary human MPCs are seeded in a 6 well plate (Costar or Nunc) at a density of 50,000 to 250,000 cells per well, typically at 100,000 cells per well. MPCs are co-infected one day later with AdC15-hCAR (MOI 750) and Ad-control (eGFP or BMP2) or hit-virus (Ad5) (at MOIs between 250 and 20,000, typically at MOIs 5000 and 2500). For Ad-GPCR or Ad-NHR experiments, cells can additionally be treated with specific ligands. These are added at the EC50 concentration and at concentrations 5-10 times higher and lower. Ligands are added 2-3 times per week. Medium supplemented with 100 μg/ml L-ascorbate and 10 mM beta-glycerophosphate, is refreshed 2 times a week. 20 to 30 days after the start of the experiment, cells are stained with Von Kossa stain or with Alizarin RedS stain.
The Alizarin RedS staining is carried out as follows: cells are washed once with PBS, fixed with 10% paraformaldehyde for 45 minutes at 4° C., and washed 2 times with PBS. Cells are incubated with 40 mM aqueous Alizarin RedS solution, pH 4.1-4.3 for 10 minutes followed by 5 washes with distilled water. Staining is evaluated and photographed using white light.

Row | Structure (SMILES) | up-regulation of endogenous alkaline phosphatase (AP) activity, dose-response (NR1H2) | mineralization (primary human MPCs)
1 | CC(=O)Oc1ccc2c(c1)[C@@]1(C)CCC[C@](C)(C(=O)OC(=O)[C@@]3(C)CCC[C@]4(C)c5cc(OC(C)=O)ccc5CC[C@@H]34)[C@@H]1CC2 [APD, acetyl podocarpic dimer] | dose-response relation is observed; also recorded: AP activity is up-regulated; also recorded: Dose-dependent up-regulation of AP activity | –
2 | O=C(O)Cc1cccc(OCCCN(Cc2cccc(C(F)(F)F)c2Cl)CC(c2ccccc2)c2ccccc2)c1 [GW3965, 2-(3-(3-(N-(2-chloro-3-(trifluoromethyl)benzyl)-N-(2,2-diphenylethyl)amino)propoxy)phenyl)acetic acid] | dose-response relation is observed; also recorded: AP activity is up-regulated; also recorded: Dose-dependent up-regulation of AP activity | –
3 | O=S(=O)(c1ccccc1)N(CC(F)(F)F)c1ccc(C(O)(C(F)(F)F)C(F)(F)F)cc1 [T0901317, N-(2,2,2-trifluoroethyl)-N-[4-[2,2,2-trifluoro-1-hydroxy-1-(trifluoromethyl)ethyl]phenyl]-benzenesulfonamide] | dose-response relation is observed; also recorded: AP activity is up-regulated; also recorded: Dose-dependent up-regulation of AP activity | score well
